Laboratory results published in patent publication US12139499B2, “Heteroaryl compounds for treating Huntington's disease” (PTC THERAPEUTICS, INC., priority 2018, dated 2024).
pIC50: −log10 of the molar value.

System: Endogenous Huntingtin Protein
Assay: Endogenous Huntingtin Protein Assay (ELISA-based MSD electrochemiluminescence)
Assay type: cell-based
Conditions: Table 1
In short: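 Huntingtin was captured overnight at 4 °C on plates coated with 1 μg/mL MW1 (polyQ-expanded) or MAB2166 antibody and BSA-blocked. Detection used a rabbit monoclonal and then a SULFO-TAG goat anti-rabbit antibody (0.25 μg/mL, 1 h each, room temperature). Signal was read by electrochemiluminescence.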

SMILES | pIC50
Cc1cn2cc(-c3ccc4nc(C5CCNCC5)sc4c3)cnc2n1 [Compound 156, 2-methyl-6-[2-(piperidin-4-yl)-1,3-benzothiazol-6-yl]imidazo[1,2-a]pyrimidine] | 5.52 to 6.00
Cc1cn2cc(-c3cc4sc(N(C)C5CC(C)(C)NC(C)(C)C5)nc4nn3)cc(F)c2n1 [Compound 157, 3-(8-fluoro-2-methylimidazo[1,2-a]pyridin-6-yl)-N-methyl-N-(2,2,6,6-tetramethylpiperidin-4-yl)[1,3]thiazolo[4,5-c]pyridazin-6-amine] | ≥ 7.00
CN(c1nc2nnc(-c3cc(C#N)c4nn(C)cc4c3)cc2s1)C1CC(C)(C)NC(C)(C)C1 [Compound 158, 2-methyl-5-{6-[methyl(2,2,6,6-tetramethylpiperidin-4-yl)amino][1,3]thiazolo[4,5-c]pyridazin-3-yl}-2H-indazole-7-carbonitrile] | 6.30 to 7.00
CN(c1nc2ncc(-c3ccc(-c4cn[nH]c4)c(F)c3F)nc2s1)C1CC(C)(C)NC(C)(C)C1 [Compound 161, 6-[2,3-difluoro-4-(1H-pyrazol-4-yl)phenyl]-N-methyl-N-(2,2,6,6-tetramethylpiperidin-4-yl)[1,3]thiazolo[4,5-b]pyrazin-2-amine] | 5.52 to 6.00
Cc1cn2nc(-c3cnc4nc(N(C)C5CC(C)(C)NC(C)(C)C5)sc4n3)cc(C)c2n1 [Compound 162, 6-(2,8-dimethylimidazo[1,2-b]pyridazin-6-yl)-N-methyl-N-(2,2,6,6-tetramethylpiperidin-4-yl)[1,3]thiazolo[4,5-b]pyrazin-2-amine] | ≥ 7.00
Cc1cn2cc(-c3cnc4nc(N(C)C5CC(C)(C)NC(C)(C)C5)sc4n3)cc(C#N)c2n1 [Compound 163, 2-methyl-6-{2-[methyl(2,2,6,6-tetramethylpiperidin-4-yl)amino][1,3]thiazolo[4,5-b]pyrazin-6-yl}imidazo[1,2-a]pyridine-8-carbonitrile] | ≥ 7.00
Cc1cn2nc(-c3cc(F)c4nc(N(C)C5CCN[C@@H](C)C5)sc4c3)ccc2n1 (stereo partly drawn) [Compound 164, 4-fluoro-N-methyl-6-(2-methylimidazo[1,2-b]pyridazin-6-yl)-N-[(2S)-2-methylpiperidin-4-yl]-1,3-benzothiazol-2-amine] | ≥ 7.00
Cc1cn2nc(-c3cc(F)c4nc(N(C)C5CCN[C@@H](C)C5)sc4c3)cc(C)c2n1 (stereo partly drawn) [Compound 165, 6-(2,8-dimethylimidazo[1,2-b]pyridazin-6-yl)-4-fluoro-N-methyl-N-[(2S)-2-methylpiperidin-4-yl]-1,3-benzothiazol-2-amine] | ≥ 7.00
Cc1cn2nc(-c3cc(F)c4nc(C5CCN6CCCC6C5)sc4c3)ccc2n1 (stereo not shown) [Compound 166, 6-[4-fluoro-2-(octahydroindolizin-7-yl)-1,3-benzothiazol-6-yl]-2-methylimidazo[1,2-b]pyridazine] | ≥ 7.00
CNc1cc(-c2cc(F)c3nc(C4CCNCC4)sc3c2)nn2cc(C)nc12 [Compound 167, 6-[4-fluoro-2-(piperidin-4-yl)-1,3-benzothiazol-6-yl]-N,2-dimethylimidazo[1,2-b]pyridazin-8-amine] | ≥ 7.00
Cc1cn2nc(-c3cc(F)c4nc(C5CCNCC5)sc4c3)cc(N(C)C)c2n1 [Compound 168, 6-[4-fluoro-2-(piperidin-4-yl)-1,3-benzothiazol-6-yl]-N,N,2-trimethylimidazo[1,2-b]pyridazin-8-amine] | ≥ 7.00
Cc1cn2cc(-c3ccc4nc(C5CCNCC5)sc4c3)ncc2n1 [Compound 169, 2-methyl-6-[2-(piperidin-4-yl)-1,3-benzothiazol-6-yl]imidazo[1,2-a]pyrazine] | 6.30 to 7.00
Cc1cn2cc(-c3ncc4nc(N(C)C5CC(C)(C)NC(C)(C)C5)sc4n3)cc(C#N)c2n1 [Compound 170, 2-methyl-6-{2-[methyl(2,2,6,6-tetramethylpiperidin-4-yl)amino][1,3]thiazolo[5,4-d]pyrimidin-5-yl}imidazo[1,2-a]pyridine-8-carbonitrile] | ≥ 7.00
Cc1cn2cc(-c3ncc4nc(N(C)C5CC(C)(C)NC(C)(C)C5)sc4n3)cc(F)c2n1 [Compound 171, 5-(8-fluoro-2-methylimidazo[1,2-a]pyridin-6-yl)-N-methyl-N-(2,2,6,6-tetramethylpiperidin-4-yl)[1,3]thiazolo[5,4-d]pyrimidin-2-amine] | ≥ 7.00
Cn1cc2cc(-c3cc(C#N)c4nc(C5=CCNCC5)sc4c3)cc(C#N)c2n1 [Compound 172, 6-(7-cyano-2-methyl-2H-indazol-5-yl)-2-(1,2,3,6-tetrahydropyridin-4-yl)-1,3-benzothiazole-4-carbonitrile] | 5.52 to 6.00
Cc1cn2cc(-c3cnc4nc(N5CCNCC5)sc4n3)cc(C#N)c2n1 [Compound 173, 2-methyl-6-[2-(piperazin-1-yl)[1,3]thiazolo[4,5-b]pyrazin-6-yl]imidazo[1,2-a]pyridine-8-carbonitrile] | 5.52 to 6.00
Cc1cn2cc(-c3cnc4nc(N5CCNCC5)sc4n3)cc(F)c2n1 [Compound 174, 6-(8-fluoro-2-methylimidazo[1,2-a]pyridin-6-yl)-2-(piperazin-1-yl)[1,3]thiazolo[4,5-b]pyrazine] | 5.52 to 6.00

SMILES | pIC50
Cc1cc(-c2ccc3nc(N(C)C4CC(C)NC(C)C4)sc3c2)cc2cn(C)nc12 (stereo not shown) [Compound 175, 6-(2,7-dimethyl-2H-indazol-5-yl)-N-(2,6-dimethylpiperidin-4-yl)-N-methyl-1,3-benzothiazol-2-amine] | ≥ 7.00
CC1CC(N(C)c2nc3ccc(-c4ccc5nn(C)cc5c4)cc3s2)CC(C)N1 (stereo not shown) [Compound 176, N-(2,6-dimethylpiperidin-4-yl)-N-methyl-6-(2-methyl-2H-indazol-5-yl)-1,3-benzothiazol-2-amine] | ≥ 7.00
Cc1cn2cc(-c3ccc4nc(N(C)C5CC(C)(C)NC(C)(C)C5)sc4n3)cc(F)c2n1 [Compound 177, 5-(8-fluoro-2-methylimidazo[1,2-a]pyridin-6-yl)-N-methyl-N-(2,2,6,6-tetramethylpiperidin-4-yl)[1,3]thiazolo[5,4-b]pyridin-2-amine] | ≥ 7.00
Cc1cn2cc(-c3ccc4nc(N(C)C5CC(C)(C)NC(C)(C)C5)sc4n3)cc(C#N)c2n1 [Compound 178, 2-methyl-6-{2-[methyl(2,2,6,6-tetramethylpiperidin-4-yl)amino][1,3]thiazolo[5,4-b]pyridin-5-yl}imidazo[1,2-a]pyridine-8-carbonitrile] | ≥ 7.00
Cc1cn2cc(-c3cc4sc(N(C)C5CC(C)(C)NC(C)(C)C5)nc4cn3)cc(C#N)c2n1 [Compound 179, 2-methyl-6-{2-[methyl(2,2,6,6-tetramethylpiperidin-4-yl)amino][1,3]thiazolo[4,5-c]pyridin-6-yl}imidazo[1,2-a]pyridine-8-carbonitrile] | ≥ 7.00
Cc1cn2cc(-c3cnc4nc(OC5CC(C)(C)NC(C)(C)C5)sc4n3)cc(F)c2n1 [Compound 180, 6-(8-fluoro-2-methylimidazo[1,2-a]pyridin-6-yl)-2-[(2,2,6,6-tetramethylpiperidin-4-yl)oxy][1,3]thiazolo[4,5-b]pyrazine] | 6.30 to 7.00
Cc1cn2cc(-c3cnc4nc(OC5CC(C)(C)NC(C)(C)C5)sc4n3)cc(C#N)c2n1 [Compound 181, 2-methyl-6-{2-[(2,2,6,6-tetramethylpiperidin-4-yl)oxy][1,3]thiazolo[4,5-b]pyrazin-6-yl}imidazo[1,2-a]pyridine-8-carbonitrile] | 6.30 to 7.00
Cc1cn2nc(-c3cnc4nc(N5CCNCC5)sc4n3)ccc2n1 [Compound 182, 6-(2-methylimidazo[1,2-b]pyridazin-6-yl)-2-(piperazin-1-yl)[1,3]thiazolo[4,5-b]pyrazine] | 6.00 to 6.30
Cc1cn2cc(-c3ncc4nc(N(C)C5CC(C)(C)NC(C)(C)C5)sc4n3)cc(C)c2n1 [Compound 183, 5-(2,8-dimethylimidazo[1,2-a]pyridin-6-yl)-N-methyl-N-(2,2,6,6-tetramethylpiperidin-4-yl)[1,3]thiazolo[5,4-d]pyrimidin-2-amine] | ≥ 7.00
Cc1cn2nc(-c3ncc4nc(N(C)C5CC(C)(C)NC(C)(C)C5)sc4n3)cc(C)c2n1 [Compound 184, 5-(2,8-dimethylimidazo[1,2-b]pyridazin-6-yl)-N-methyl-N-(2,2,6,6-tetramethylpiperidin-4-yl)[1,3]thiazolo[5,4-d]pyrimidin-2-amine] | 5.52 to 6.00
Cc1cn2nc(-c3cc(F)c4nc(N(C)C5CCNCC5)sc4c3)ccc2n1 [Compound 185, 4-fluoro-N-methyl-6-(2-methylimidazo[1,2-b]pyridazin-6-yl)-N-(piperidin-4-yl)-1,3-benzothiazol-2-amine] | ≥ 7.00
Cc1cn2nc(-c3cc(F)c4nc(N(C)C5CCNCC5)sc4c3)cc(C)c2n1 [Compound 186, 6-(2,8-dimethylimidazo[1,2-b]pyridazin-6-yl)-4-fluoro-N-methyl-N-(piperidin-4-yl)-1,3-benzothiazol-2-amine] | ≥ 7.00
Cc1cn2nc(-c3cc(F)c4nc(C5CCNCC5)sc4c3)cc(OCc3ccccc3)c2n1 [Compound 187, 8-(benzyloxy)-6-[4-fluoro-2-(piperidin-4-yl)-1,3-benzothiazol-6-yl]-2-methylimidazo[1,2-b]pyridazine] | ≥ 7.00
Cc1cn2nc(-c3cc(F)c4nc(C5CCNCC5)sc4c3)cc(N)c2n1 [Compound 188, 6-[4-fluoro-2-(piperidin-4-yl)-1,3-benzothiazol-6-yl]-2-methylimidazo[1,2-b]pyridazin-8-amine] | ≥ 7.00
Cc1cn2nc(-c3cc(F)c4nc(C5CCNCC5)sc4c3)cc(O)c2n1 [Compound 189, 6-[4-fluoro-2-(piperidin-4-yl)-1,3-benzothiazol-6-yl]-2-methylimidazo[1,2-b]pyridazin-8-ol] | 6.30 to 7.00
CC1CC(c2nc3ccc(-c4ccc5nn(C)cc5c4)cc3s2)CC(C)N1 (stereo not shown) [Compound 190, 2-(2,6-dimethylpiperidin-4-yl)-6-(2-methyl-2H-indazol-5-yl)-1,3-benzothiazole] | 5.52 to 6.00
COc1cc(-c2cc(F)c3nc(C4CCNCC4)sc3c2)ccc1F [Compound 191, 4-fluoro-6-(4-fluoro-3-methoxyphenyl)-2-(piperidin-4-yl)-1,3-benzothiazole] | 5.52 to 6.00
